Assay results taken from patent US4581355A, “3-indolecarboxamides for control of circulatory diseases” (Yoshitomi Pharmaceutical Industries, Ltd., priority 1983, dated 1986).

How the values were obtained:
mice = assay: acute toxicity in male mice; format: in vivo; conditions: observed for 5 days
Excerpt: The acute toxicity of the compounds of the present invention was studied in 5 male mice weighing 30 to 45 g.

5-lipoxygenase = 5-lipoxygenase inhibition (method of Yoshimoto et al.); format: biochemical; conditions: read-out: 50% inhibitory concentration on 5-lipoxygenase
Excerpt: According to the pharmacological experiment conducted by the method of Yoshimoto et al. which is described in Biochem. Biophys. Res. Commum., vol. 107, p.

[1] = tested on: left ventricular pressure max dP/dt; assay: cardiotonic activity (max dP/dt) in anesthetized dogs; format: in vivo; conditions: injected into left coronary artery
Experimental: The experiment on cardiotonic activity of the compounds of the present invention was conducted as follows: Dogs were anesthetized with sodium pentobarbital and heparin was administered intraveneously. The left venticular pressure and its max dP/dt were measured. Test compounds were injected at a volume of 10 to 30 μl into a catheter inserted into left coronary artery. The effects of test compounds on max dP/dt were shown as ED30, a dose required to increase max dP/dt by 30% of the effects of 0.1 μg is isoproterenol.

central nervous system = assay: sedative activity by electroencephalograms in rabbits; format: in vivo; conditions: from the intraperitoneal dose of 3 mg/kg

Compound | IC50 (5-lipoxygenase) [nM] | ED30, dose required to increase max dP/dt by 30% of the effects of 0.1 μg isoproterenol [1] [µg] | also measured
Cc1[nH]c2ccc(O)cc2c1C(=O)NC1CCN(CCc2ccccc2)CC1 [Example 2, 5-hydroxy-2-methyl-N-[1-(2-phenylethyl)-4-piperidyl]indole-3-carboxamide] | 440 | – | mortality (mice; oral 1000 mg/kg): All animals survived
Cc1[nH]c2ccc(O)cc2c1C(=O)NC1CCN(CCCc2ccccc2)CC1 [Example 3, 5-hydroxy-2-methyl-N-[1-(3-phenylpropyl)-4-piperidyl]indole-3-carboxamide] | 180 | 50 | –
Cc1[nH]c2ccc(O)cc2c1C(=O)NC1CCN(CCCc2ccc(O)cc2)CC1 [Example 35, 5-Hydroxy-2-methyl-N-[1-(3-(p-hydroxyphenyl)propyl)-4-piperidyl]indole-3-carboxamide] | – | 36 | –
O=C(NC1CCN(CCc2c[nH]c3ccccc23)CC1)c1ccccc1 [indoramin, 3-[2-(4-benzamido-1-piperidyl)ethyl]indole, reference compound] | – | – | mortality (mice; oral 500 mg/kg): all mice died; changes on electroencephalograms (sedative activity) (central nervous system): trend toward slow wave
C[C@@H]1O[C@@H](O[C@H]2C[C@@H](O)[C@]3(CO)[C@H]4[C@H](O)C[C@]5(C)[C@@H](C6=CC(=O)OC6)CC[C@]5(O)[C@@H]4CC[C@]3(O)C2)[C@H](O)[C@H](O)[C@H]1O [ouabain, reference compound] | – | 60 | –
